This note sets out measurements from patent US8710233B2 (Gruenenthal GmbH, priority 2005, dated 2014).

Where two headings read alike, the source gives them in different places.

In assay [1] the test system is capsaicin induced hypothermie. The assay is described as follows: Hypothermie assay in the mouse (capsaicin induced hypothermie). Format: in vivo.
The test system of assay [2] is formaldehyde induced nociceptive behaviour. The assay is described as follows: Formaldehyde test in mice, second (late) phase. Format: in vivo, mouse. Conditions: for inhibition in vivo at 1 mg/kg / inhibition in vivo at 0.1 mg/kg / inhibition in vivo at 0.3 mg/kg: read-out: inhibition formaldehyde test (n = 10); for inhibition in vivo at 0.1 mg/kg: 0.1 mg/kg body weight po.

For assay [3], the target named is T1, vanilloid receptor 1 (VR1/TRPV1) of the rat species (Rattus norvegicus, UniProt O35433).
T1 construct: The spinal column is removed from decapitated rats; from tissue; host or cells: primary cells dissociated from rat dorsal root ganglia
T1 sequence (O35433 whole entry): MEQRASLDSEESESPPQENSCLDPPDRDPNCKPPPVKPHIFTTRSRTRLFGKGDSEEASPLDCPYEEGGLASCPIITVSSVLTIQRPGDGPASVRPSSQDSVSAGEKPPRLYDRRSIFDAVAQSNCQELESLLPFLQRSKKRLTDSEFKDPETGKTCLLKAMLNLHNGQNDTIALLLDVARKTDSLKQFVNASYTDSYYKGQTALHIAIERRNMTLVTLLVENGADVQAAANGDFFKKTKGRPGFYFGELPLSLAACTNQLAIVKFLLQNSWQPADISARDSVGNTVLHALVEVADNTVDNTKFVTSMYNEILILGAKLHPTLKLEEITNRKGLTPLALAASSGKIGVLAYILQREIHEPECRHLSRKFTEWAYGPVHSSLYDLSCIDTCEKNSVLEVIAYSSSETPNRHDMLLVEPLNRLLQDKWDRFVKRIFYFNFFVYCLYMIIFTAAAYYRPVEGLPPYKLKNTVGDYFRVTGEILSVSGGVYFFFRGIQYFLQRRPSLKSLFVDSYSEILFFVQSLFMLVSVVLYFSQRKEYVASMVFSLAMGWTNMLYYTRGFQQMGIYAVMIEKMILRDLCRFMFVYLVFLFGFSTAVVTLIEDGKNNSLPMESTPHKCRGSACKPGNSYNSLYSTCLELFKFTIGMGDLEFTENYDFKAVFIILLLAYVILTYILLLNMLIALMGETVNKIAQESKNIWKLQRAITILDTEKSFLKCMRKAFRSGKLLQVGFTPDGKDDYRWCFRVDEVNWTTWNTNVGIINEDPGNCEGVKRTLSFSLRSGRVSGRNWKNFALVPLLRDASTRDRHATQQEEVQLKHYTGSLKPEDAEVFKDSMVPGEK
The assay can be described thus: FLIPR Ca2+ influx assay on rat dorsal root ganglia cells (pharmacological method I). In kind it is cell-based. The settings on record: table 4; capsaicin; read-out: Ki (rat) Cap. The method in brief:
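Primary rat dorsal root ganglion cells loaded with 2 μM Fluo-4, Ca2+ influx read on FLIPR as peak fluorescence. Triplicates, at least 3 independent experiments.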

The target in assay [4] is T2, vanilloid receptor (VR1) (Homo sapiens, UniProt Q8NER1).
T2 construct: expressed in transfected cells; host or cells: CHO K1 cells (ECACC), stably transfected
T2 sequence (Q8NER1 whole entry): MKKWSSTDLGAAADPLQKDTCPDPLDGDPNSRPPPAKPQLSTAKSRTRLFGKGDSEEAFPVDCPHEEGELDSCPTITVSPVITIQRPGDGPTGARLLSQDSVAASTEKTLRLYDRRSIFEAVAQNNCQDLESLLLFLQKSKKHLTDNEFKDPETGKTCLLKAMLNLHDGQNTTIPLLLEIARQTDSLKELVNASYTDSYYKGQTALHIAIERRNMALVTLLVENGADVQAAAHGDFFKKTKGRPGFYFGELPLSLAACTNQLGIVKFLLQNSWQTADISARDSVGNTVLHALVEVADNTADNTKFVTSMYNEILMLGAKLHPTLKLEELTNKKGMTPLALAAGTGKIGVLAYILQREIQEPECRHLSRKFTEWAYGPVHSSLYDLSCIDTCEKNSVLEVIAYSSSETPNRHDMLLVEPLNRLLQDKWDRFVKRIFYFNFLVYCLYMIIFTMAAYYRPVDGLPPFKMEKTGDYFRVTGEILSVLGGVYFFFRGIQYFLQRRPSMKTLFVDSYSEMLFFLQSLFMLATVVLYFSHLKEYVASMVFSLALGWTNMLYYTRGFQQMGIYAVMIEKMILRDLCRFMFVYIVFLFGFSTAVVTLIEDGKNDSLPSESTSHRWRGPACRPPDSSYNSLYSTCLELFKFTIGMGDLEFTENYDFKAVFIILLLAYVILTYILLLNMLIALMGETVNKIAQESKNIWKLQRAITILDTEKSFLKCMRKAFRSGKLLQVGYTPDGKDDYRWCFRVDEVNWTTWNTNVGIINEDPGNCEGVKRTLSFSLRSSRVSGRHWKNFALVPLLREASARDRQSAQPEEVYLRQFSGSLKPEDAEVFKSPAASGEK
The assay is described as follows: FLIPR Ca2+ influx assay on CHO K1 cells transfected with the VR1 gene (pharmacological method II). In kind it is cell-based. Conditions: table 4; capsaicin; read-out: Ki (human) Cap.

Assay [5] addresses VR1/TRPV1 receptor (Homo sapiens, UniProt Q8NER1). The assay is described as follows: IC50 (human) after pH stimulus. Format: cell-based. Conditions: for IC50: table 4.
Where [6] appears, read: 0.3 mg/kg body weight po, mouse, read-out: inhibition hypothermie (n = 5).
Setting [7] is: 1 mg/kg body weight po, mouse, read-out: inhibition hypothermie (n = 5).
Setting [8] is: 0.3 mg/kg body weight po, mouse.
[9] abbreviates: Mus musculus, po, read-out: inhibition hypothermie (n = 5).

Sequence of VR1/TRPV1 receptor (Q8NER1 whole entry): as above

With `CC(C(=O)NCc1ccc(C(F)(F)F)nc1OCCC(C)(C)C)c1ccc(NS(C)(=O)=O)c(F)c1` (stereo not shown) [Compound 125], the inhibition in vivo at 0.3 mg/kg in assay [1] (setting [6]) stood at 37%. In addition, the inhibition in vivo at 1 mg/kg in assay [1] (setting [7]) came to 32%; in assay [2] (1 mg/kg body weight po, mouse), 19%. The inhibition in vivo at 3 mg/kg in assay [1] (3 mg/kg body weight po, mouse, read-out: inhibition hypothermie (n = 5)) came out at 65%.
On to `CC(C(=O)NCc1ccc(C(F)(F)F)cc1N1CCCCCCC1)c1ccc(NS(C)(=O)=O)c(F)c1` (stereo not shown) [Compound 217], for which the inhibition in vivo at 0.3 mg/kg in assay [1] (setting [6]) worked out at 97%. Further, the inhibition in vivo at 1 mg/kg in assay [2] (1 mg/kg body weight po, mouse) amounted to 37%.
As to `CC(C(=O)NCc1ccc(C(C)(C)C)nc1OC1CCCC1)c1ccc(NS(C)(=O)=O)c(F)c1` (stereo not shown) [Compound 234], the inhibition in vivo at 0.3 mg/kg in assay [1] (setting [6]) was determined as 31%; in assay [2] (setting [8]), 41%. Further, in assay [2] (mouse), the inhibition in vivo at 0.1 mg/kg was 28%. Moreover, the inhibition in vivo at 1 mg/kg in assay [2] (1 mg/kg body weight po, mouse) amounted to 44%.
The term Ki denotes a dissociation constant, usually derived from enzyme kinetics or from competition with a known ligand. A word on the IC50: it is the concentration needed to halve the response being measured. As for `CC1CCN(c2nc(C(F)(F)F)ccc2CNC(=O)C(C)c2ccc(NS(C)(=O)=O)c(F)c2)CC1` (stereo not shown) [Example 80, 2-(3-fluoro-4-methylsulfonamido-phenyl)-N-(2-4-methylpiperidin-1-yl-6-trifluoromethyl-pyridin-3-ylmethyl)-propionamide], the Ki worked out at 0.6 nM in assay [3] and 0.3 nM in assay [4]. This molecule also registered an IC50 in assay [5] of 5.4 nM. Besides, the inhibition in vivo at 0.3 mg/kg in assay [1] (setting [9]) is 66%; in assay [2] (setting [8]), 58%.
`CC1CCN(c2cc(C(F)(F)F)ccc2CNC(=O)C(C)c2ccc(NS(C)(=O)=O)c(F)c2)CC1` (stereo not shown) [Example 82, 2-(3-Fluor-4-(methylsulfonamido)phenyl)-N-(2-(4-methylpiperidin-1-yl)-4-(trifluoromethyl)benzyl)propanamide]: the Ki in assay [3] turned out to be 0.7 nM; in assay [4] it was 0.9 nM. Further, the IC50 in assay [5] amounted to 16.2 nM. The “inhibition hypothermie (n = 5)” value in assay [1] (setting [8]) is reported as 0.3 po 53%. Moreover, the “inhibition formaldehyde test (n = 10)” value in assay [2] (setting [8]) came out at 0.3 po 39%.
Turning to `CC(C(=O)NCc1ccc(C(F)(F)F)nc1-c1cccs1)c1ccc(NS(C)(=O)=O)c(F)c1` (stereo not shown) [Example 88, 2-(3-fluoro-4-methylsulfonamido-phenyl)-N-((6-(trflluoromethyl)-2-(thiophen-2-yl)pyridin-3-yl)methyl)-propionamide], the Ki in assay [3] was determined as 5 nM; in assay [4], 0.3 nM. For the same molecule, 57.1 nM corresponded to half-maximal inhibition in assay [5] (IC50). For the same molecule, the inhibition in vivo at 0.3 mg/kg is 38% in assay [1] (setting [6]) and 4% in assay [2] (setting [8]).
Turning to `CC(C(=O)NCc1ccc(C(F)(F)F)nc1NC1CCCCC1)c1ccc(NS(C)(=O)=O)c(F)c1` (stereo not shown) [Example 90, N-(2-cyclohexylamino-6-trifluoromethyl-pyridin-3-ylmethyl)-2-(3-fluoro-4-methylsulfonamido-phenyl)-propionamide], the figures for the Ki in assay [3] and in assay [4] were 47 nM and 20.4 nM, respectively. In assay [5], the IC50 is 260 nM. Also, the inhibition in vivo at 0.3 mg/kg in assay [1] (setting [6]) turned out to be 81%; in assay [2] (setting [8]), 46%.
The term inhibition denotes the relative decrease from the control value, in per cent. Consider `CC(C(=O)NCc1ccc(C(F)(F)F)nc1N1CCCC1)c1ccc(NS(C)(=O)=O)c(Br)c1` (stereo not shown) [Example 103, 2-(3-bromo-4-methylsulfonamido-phenyl)-N-(2-pyrrolidin-1-yl-6-trifluoromethyl-pyridin-3-ylmethyl)-propionamide], for which the values for the Ki in assay [3] and in assay [4] were 4.9 nM and 2.8 nM, respectively. For the same molecule, the inhibition at 10 µM in assay [5] (@ 10 μM, read-out: inhibition in percent, IC50 (human) after pH stimulus) stood at 16%. Besides, the inhibition in vivo at 0.3 mg/kg in assay [1] (setting [6]) was 39%; in assay [2] (setting [8]) it was 36%.
Turning to `CCCCOc1cc(C(C)(C)C)ccc1CNC(=O)C(C)c1ccc(NS(C)(=O)=O)c(F)c1` (stereo not shown) [Example 108, N-(2-butoxy-4-tert-butyl-benzyl)-2-(3-fluoro-4-methylsulfonamido-phenyl)-propionamide], the Ki in assay [3] stood at 0.6 nM; in assay [4], 1.4 nM. The molecule further yielded an IC50 in assay [5] of 114 nM. In addition, the inhibition in vivo at 0.3 mg/kg was found to be 38% in assay [1] (setting [6]) and 15% in assay [2] (setting [8]).
Regarding `CCCCNc1nc(C(F)(F)F)ccc1CNC(=O)C(C)c1ccc(NS(C)(=O)=O)c(F)c1` (stereo not shown) [Example 116, N-(2-butylamino-6-trifluoromethyl-pyridin-3-ylmethyl)-2-(3-fluoro-4-methylsulfonamido-phenyl)-propionamide], the results for the Ki in assay [3] and in assay [4] were 6.6 nM and 9.1 nM, respectively. The molecule further had an IC50 in assay [5] of 293 nM. Moreover, the inhibition in vivo at 0.3 mg/kg in assay [1] (setting [6]) was 21%. The inhibition in vivo at 0.1 mg/kg in assay [2] (mouse) worked out at 39%.
In the case of `CC(C(=O)NCc1ccc(C(F)(F)F)nc1-c1ccc(C(C)(C)C)cc1)c1ccc(NS(C)(=O)=O)c(F)c1` (stereo not shown) [Example 117], the Ki in assay [3] and in assay [4] was 0.5 nM throughout. In assay [5], this molecule registered an IC50 of 23.5 nM. Also, the results for the inhibition in vivo at 0.3 mg/kg in assay [1] (setting [6]) and in assay [2] (setting [8]) were 70% and 5%, respectively.
Regarding `CC(C(=O)NCc1ccc(C(F)(F)F)nc1SC1CCCCC1)c1ccc(NS(C)(=O)=O)c(F)c1` (stereo not shown) [Example 126], the Ki in assay [3] came out at 1.2 nM; in assay [4] it was 0.9 nM. In assay [5], this molecule had an IC50 of 101 nM. Besides, the inhibition in vivo at 0.3 mg/kg in assay [1] (setting [6]) turned out to be 0%. Moreover, in assay [2] (mouse), the inhibition in vivo at 0.1 mg/kg worked out at 20%.
Regarding `Cc1cc(C(C)C(=O)NCc2ccc(C(F)(F)F)nc2N2CCCCC2)ccc1NS(C)(=O)=O` (stereo not shown) [Example 127, 2-(4-methylsulfonamido-3-methyl-phenyl)-N-(6′-trifluoromethyl-3,4,5,6-tetrahydro-2H-[1,2′]bipyridinyl-3′-ylmethyl)-propionamide], the Ki turned out to be 0.6 nM in assay [3] and 0.5 nM in assay [4]. The same molecule registered an IC50 in assay [5] of 15.4 nM. The figures for the inhibition in vivo at 0.3 mg/kg in assay [1] (setting [6]) and in assay [2] (setting [8]) were 6% and 22%, respectively.
`CC(C(=S)NCc1ccc(C(F)(F)F)nc1N1CCCC1)c1ccc(NS(C)(=O)=O)c(F)c1` (stereo not shown) [Example 129, 2-(3-fluoro-4-methylsulfonamido-phenyl)-N-(2-pyrrolidin-1-yl-6-trifluoromethyl-pyridin-3-ylmethyl)-thiopropionamide]: the Ki in assay [3] amounted to 1.6 nM; in assay [4], 1.8 nM. This molecule also showed an IC50 in assay [5] of 77.2 nM. The figures for the inhibition in vivo at 0.3 mg/kg in assay [1] (setting [6]) and in assay [2] (setting [8]) were 10% and 5%, respectively.
The corresponding values for `CC(C(=S)NCc1ccc(C(F)(F)F)nc1-c1ccc(F)cc1)c1ccc(NS(C)(=O)=O)c(F)c1` (stereo not shown) [Example 130, 2-(3-fluoro-4-methylsulfonamido-phenyl)-N-[2-(4-fluoro-phenyl)-6-trifluoromethyl-pyridin-3-ylmethyl]-thiopropionamide] are 4.5 nM, 2.1 nM, 34.3 nM, 58% and 41%.
Consider `CC(C(=O)NCc1ccc(C(F)(F)F)nc1-c1cccc(F)c1)c1ccc(NS(C)(=O)=O)c(F)c1` (stereo not shown) [Example 148, 2-(3-fluoro-4-methylsulfonamido-phenyl)-N-[2-(3-fluoro-phenyl)-6-trifluoromethyl-pyridin-3-ylmethyl]-propionamide], for which the Ki in assay [3] is 1.1 nM; in assay [4] it was 1.3 nM. The same molecule had an IC50 in assay [5] of 63.6 nM. Further, the inhibition in vivo at 0.3 mg/kg came to 45% in assay [1] (setting [6]) and 44% in assay [2] (setting [8]).
On to `CC(C(=O)NCc1ccc(C(F)(F)F)nc1-c1ccccc1F)c1ccc(NS(C)(=O)=O)c(F)c1` (stereo not shown) [Example 150, 2-(3-fluoro-4-methylsulfonamido-phenyl)-N-[2-(2-fluoro-phenyl)-6-trifluoromethyl-pyridin-3-ylmethyl]-propionamide], for which the values for the Ki in assay [3] and in assay [4] were 22.4 nM and 63.3 nM, respectively. The IC50 in assay [5] stood at 1320 nM. In addition, the inhibition in vivo at 0.3 mg/kg in assay [2] (setting [8]) was determined as 17%.
With `CC(C(=O)NCc1ccc(C(F)(F)F)nc1OCCc1ccccc1)c1ccc(NS(C)(=O)=O)c(F)c1` (stereo not shown) [Example 178, 2-(3-fluoro-4-methylsulfonamido-phenyl)-N-(2-phenethyloxy-6-trifluoromethyl-pyridin-3-ylmethyl)-propionamide], in assay [3], the Ki worked out at 1.9 nM. Moreover, the inhibition in vivo at 0.3 mg/kg in assay [1] (setting [6]) worked out at 42%; in assay [2] (setting [8]), 16%.
Take `CC(C)CCOc1nc(C(C)(C)C)ccc1CNC(=O)C(C)c1ccc(NS(C)(=O)=O)c(F)c1` (stereo not shown) [Example 329, N-[6-tert-butyl-2-(3-methyl-butoxy)-pyridin-3-ylmethyl]-2-(3-fluoro-4-methylsulfonamido-phenyl)-propionamide]: the Ki in assay [4] amounted to 0.8 nM. In addition, the midpoint of inhibition in assay [5], the IC50, lay at 179 nM. Besides, the inhibition in vivo at 1 mg/kg in assay [1] (setting [7]) worked out at 7%; in assay [2] (1 mg/kg body weight po, mouse) it was 54%.
Take `CC(C(=O)NCc1ccc(C(F)(F)F)nc1N1CCC(c2ccccc2)(N(C)C)CC1)c1ccc(NS(C)(=O)=O)c(F)c1` (stereo not shown) [Example 330, N-(4-dimethylamino-4-phenyl-6′-trifluoromethyl-3,4,5,6-tetrahydro-2H-[1,2′]bipyridinyl-3′-ylmethyl)-2-(3-fluoro-4-methylsulfonamido-phenyl)-propionamide]: the inhibition in vivo at 1 mg/kg in assay [1] (setting [9]) worked out at 7%; in assay [2] (Mus musculus, po), 54%.
